Key:
Test in all cases: cells
NCI-H441 = assay type: functional, cell-based, Homo sapiens; details: Homo sapiens, NCI-H441;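 further: growth inhibition of NCI-H441 cells, read out with a cell viability assay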
Description: SANGER: Inhibition of human NCI-H441 cell growth in a cell viability assay.

NCI-H2009 = assay type: functional, cell-based, Homo sapiens; details: Homo sapiens, NCI-H2009;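 further: cell viability assay measuring inhibition of NCI-H2009 cell growth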
Description: SANGER: Inhibition of human NCI-H2009 cell growth in a cell viability assay.

CA46 = assay type: functional, cell-based, Homo sapiens; details: Homo sapiens, CA46;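 further: growth inhibition of human CA46 cells, read out by a cell viability assay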
Description: SANGER: Inhibition of human CA46 cell growth in a cell viability assay.

RL = assay type: functional, cell-based, Homo sapiens; details: Homo sapiens, RL
Description: SANGER: Inhibition of human RL cell growth in a cell viability assay.

UMUC3 = assay type: functional, cell-based, Homo sapiens; details: Homo sapiens, UMUC3;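 further: growth inhibition of human UM-UC-3 cells, read out with a cell viability assay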
Description: SANGER: Inhibition of human UM-UC-3 cell growth in a cell viability assay.

D-542MG = assay type: functional, cell-based, Homo sapiens; details: Homo sapiens, D-542MG
Description: SANGER: Inhibition of human D-542MG cell growth in a cell viability assay.

A2780 = assay type: functional, cell-based, Homo sapiens; details: Homo sapiens, A2780;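 further: growth inhibition of A2780 cells, read out with a cell viability assay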
Description: SANGER: Inhibition of human A2780 cell growth in a cell viability assay.

HCC1937 = assay type: functional, cell-based, Homo sapiens; details: Homo sapiens, HCC1937;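 further: growth inhibition measured with a cell viability read-out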
Description: SANGER: Inhibition of human HCC1937 cell growth in a cell viability assay.

KU-19-19 = assay type: functional, cell-based, Homo sapiens; details: Homo sapiens, KU-19-19
Description: SANGER: Inhibition of human KU-19-19 cell growth in a cell viability assay.

NCI-H322M = assay type: functional, cell-based, Homo sapiens; details: Homo sapiens, NCI-H322M;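 further: cell viability assay measuring inhibition of growth of human NCI-H322M cells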
Description: SANGER: Inhibition of human NCI-H322M cell growth in a cell viability assay.

MeWo = assay type: functional, cell-based, Homo sapiens; details: Homo sapiens, MeWo;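 further: growth inhibition of MeWo cells, determined by a cell viability readout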
Description: SANGER: Inhibition of human Mewo cell growth in a cell viability assay.

SK-MEL-30 = assay type: functional, cell-based, Homo sapiens; details: Homo sapiens, SK-MEL-30;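 further: growth inhibition of SK-MEL-30 cells, determined with a cell viability assay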
Description: SANGER: Inhibition of human SK-MEL-30 cell growth in a cell viability assay.

CaR-1 = assay type: functional, cell-based, Homo sapiens; details: Homo sapiens, CaR-1;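 further: growth inhibition of human CaR-1 cancer cells, read out with a cell viability assay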
Description: SANGER: Inhibition of human CaR-1 cell growth in a cell viability assay.

23132-87 = assay type: functional, cell-based, Homo sapiens; details: Homo sapiens
Description: SANGER: Inhibition of human 23132-87 cell growth in a cell viability assay.

GMS-10 = assay type: functional, cell-based, Homo sapiens; details: Homo sapiens, GMS-10;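 further: growth inhibition of GMS-10 cells, read out as cell viability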
Description: SANGER: Inhibition of human GMS-10 cell growth in a cell viability assay.

OAW-28 = assay type: functional, cell-based, Homo sapiens; details: Homo sapiens, OAW-28;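 further: growth inhibition of OAW-28 cells, read out with a cell viability assay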
Description: SANGER: Inhibition of human OAW-28 cell growth in a cell viability assay.

RPMI-2650 = assay type: functional, cell-based, Homo sapiens; details: Homo sapiens, RPMI-2650
Description: SANGER: Inhibition of human RPMI-2650 cell growth in a cell viability assay.

NCI-H1792 = assay type: functional, cell-based, Homo sapiens; details: Homo sapiens, NCI-H1792;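 further: growth inhibition of human NCI-H1792 cells, read out as cell viability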
Description: SANGER: Inhibition of human NCI-H1792 cell growth in a cell viability assay.

SK-LU-1 = assay type: functional, cell-based, Homo sapiens; details: Homo sapiens, SK-LU-1;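 further: cell viability assay measuring growth inhibition of human SK-LU-1 cells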
Description: SANGER: Inhibition of human SK-LU-1 cell growth in a cell viability assay.

SW756 = assay type: functional, cell-based, Homo sapiens; details: Homo sapiens, SW756;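 further: growth inhibition of human SW756 cells, read out with a cell viability assay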
Description: SANGER: Inhibition of human SW756 cell growth in a cell viability assay.

T98G = assay type: functional, cell-based, Homo sapiens; details: Homo sapiens, T98G;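 further: growth inhibition of T98G cells, read out by a cell viability assay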
Description: SANGER: Inhibition of human T98G cell growth in a cell viability assay.

CHP-212 = assay type: functional, cell-based, Homo sapiens; details: Homo sapiens, CHP-212
Description: SANGER: Inhibition of human CHP-212 cell growth in a cell viability assay.

CAL-120 = assay type: functional, cell-based, Homo sapiens; details: Homo sapiens, CAL-120;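 further: cell growth inhibition, read out as cell viability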
Description: SANGER: Inhibition of human CAL-120 cell growth in a cell viability assay.

PANC-08-13 = assay type: functional, cell-based, Homo sapiens; details: Homo sapiens, PANC-08-13;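 further: cell growth inhibition, measured with a cell viability assay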
Description: SANGER: Inhibition of human PANC-08-13 cell growth in a cell viability assay.

MKN-1 = assay type: functional, cell-based, Homo sapiens; details: Homo sapiens, MKN-1;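 further: growth inhibition of human MKN1 cells, read out by a cell viability measurement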
Description: SANGER: Inhibition of human MKN1 cell growth in a cell viability assay.

VM-CUB-1 = assay type: functional, cell-based, Homo sapiens; details: Homo sapiens, VM-CUB-1;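 further: cell viability assay measuring growth inhibition of the human VM-CUB-1 cell line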
Description: SANGER: Inhibition of human VM-CUB-1 cell growth in a cell viability assay.

BPH-1 = assay type: functional, cell-based, Homo sapiens; details: Homo sapiens, BPH-1;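 further: cell viability assay measuring growth inhibition of human BPH-1 cells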
Description: SANGER: Inhibition of human BPH-1 cell growth in a cell viability assay.

JIYOYE = assay type: functional, cell-based, Homo sapiens; details: Homo sapiens, JIYOYE
Description: SANGER: Inhibition of human JiyoyeP-2003 cell growth in a cell viability assay.

HTC-C3 = assay type: functional, cell-based, Homo sapiens; details: Homo sapiens, HTC-C3;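 further: inhibition of cell growth, read out with a cell viability assay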
Description: SANGER: Inhibition of human HTC-C3 cell growth in a cell viability assay.

SW48 = assay type: functional, cell-based, Homo sapiens; details: Homo sapiens, SW48;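 further: growth inhibition of SW48 cells, read out with a cell viability assay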
Description: SANGER: Inhibition of human SW48 cell growth in a cell viability assay.

647-V = assay type: functional, cell-based, Homo sapiens; details: Homo sapiens, 647-V;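 further: growth inhibition of 647-V cells, read out with a cell viability assay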
Description: SANGER: Inhibition of human 647-V cell growth in a cell viability assay.

NCI-H716 = assay type: functional, cell-based, Homo sapiens; details: Homo sapiens, NCI-H716;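 further: growth inhibition of human NCI-H716 cells, measured by a cell viability assay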
Description: SANGER: Inhibition of human NCI-H716 cell growth in a cell viability assay.

KMS-12-PE = assay type: functional, cell-based, Homo sapiens; details: Homo sapiens, KMS-12-PE;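 further: growth inhibition of human KMS-12-PE cells, measured with a cell viability assay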
Description: SANGER: Inhibition of human KMS-12-PE cell growth in a cell viability assay.

KYSE-410 = assay type: functional, cell-based, Homo sapiens; details: Homo sapiens, KYSE-410;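 further: growth inhibition of KYSE-410 cells, measured through a cell viability readout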
Description: SANGER: Inhibition of human KYSE-410 cell growth in a cell viability assay.

G-401 = assay type: functional, cell-based, Homo sapiens; details: Homo sapiens, G-401
Description: SANGER: Inhibition of human G-401 cell growth in a cell viability assay.

UO-31 = assay type: functional, cell-based, Homo sapiens; details: Homo sapiens, UO-31;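 further: cell viability assay measuring inhibition of cell growth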
Description: SANGER: Inhibition of human U031 cell growth in a cell viability assay.

SBC-5 = assay type: functional, cell-based, Homo sapiens; details: Homo sapiens, SBC-5;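 further: cell viability assay read-out, IC50 is the concentration that inhibits growth of the cells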
Description: SANGER: Inhibition of human SBC-5 cell growth in a cell viability assay.

MEL-JUSO = assay type: functional, cell-based, Homo sapiens; details: Homo sapiens, MEL-JUSO;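 further: growth inhibition of human MEL-JUSO cells, read out with a cell viability assay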
Description: SANGER: Inhibition of human MEL-JUSO cell growth in a cell viability assay.

T84 = assay type: functional, cell-based, Homo sapiens; details: Homo sapiens, T84;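 further: growth inhibition measured with a cell viability readout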
Description: SANGER: Inhibition of human T84 cell growth in a cell viability assay.

UACC-62 = assay type: functional, cell-based, Homo sapiens; details: Homo sapiens, UACC-62;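 further: growth inhibition of human UACC-62 cells, read out by a cell viability assay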
Description: SANGER: Inhibition of human UACC-62 cell growth in a cell viability assay.

MC-IXC = assay type: functional, cell-based, Homo sapiens; details: Homo sapiens, MC-IXC;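 further: growth inhibition of MC-IXC cells, read out with a cell viability assay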
Description: SANGER: Inhibition of human MC-IXC cell growth in a cell viability assay.

ASPC1 = assay type: functional, cell-based, Homo sapiens; details: Homo sapiens, ASPC1;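 further: growth inhibition of AsPC-1 cells, read out with a cell viability assay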
Description: SANGER: Inhibition of human AsPC-1 cell growth in a cell viability assay.

HT1197 = assay type: functional, cell-based, Homo sapiens, HT-1197; details: Homo sapiens, HT1197
Description: SANGER: Inhibition of human HT-1197 cell growth in a cell viability assay.

NCI-H1522 = assay type: functional, cell-based, Homo sapiens; details: Homo sapiens, NCI-H1522;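 further: growth inhibition of NCI-H1522 cells, read out with a cell viability assay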
Description: SANGER: Inhibition of human NCI-H1522 cell growth in a cell viability assay.

D-336MG = assay type: functional, cell-based, Homo sapiens; details: Homo sapiens, D-336MG
Description: SANGER: Inhibition of human D-336MG cell growth in a cell viability assay.

`Nc1ccn([C@@H]2O[C@H](CO)[C@@H](O)C2(F)F)c(=O)n1` [GEMCITABINE] gave an IC50 (NCI-H441) of 0.0056 µM, an IC50 (NCI-H2009) of less than 0.004 µM and an IC50 (CA46) of 0.293 µM. It also gave an IC50 (RL) greater than 1.02 µM, an IC50 (UMUC3) of 0.0162 µM and an IC50 (D-542MG) greater than 1.02 µM. For the same compound, the IC50 (A2780) was less than 0.004 µM, the IC50 (HCC1937) was greater than 1.02 µM and the IC50 (KU-19-19) was greater than 1.02 µM. The IC50 (NCI-H322M) was greater than 1.02 µM, the IC50 (MeWo) was greater than 1.02 µM and the IC50 (SK-MEL-30) was less than 0.004 µM. The IC50 (CaR-1) was 0.551 µM, the IC50 (23132-87) was 0.0431 µM and the IC50 (GMS-10) was greater than 1.02 µM. The IC50 (OAW-28) was 0.0454 µM, the IC50 (RPMI-2650) was 0.0176 µM and the IC50 (NCI-H1792) was 0.259 µM. It also gave an IC50 (SK-LU-1) of less than 0.004 µM, an IC50 (SW756) of 0.0451 µM and an IC50 (T98G) of 0.539 µM. For the same compound, the IC50 (CHP-212) was 0.00275 µM, the IC50 (CAL-120) was 0.576 µM and the IC50 (PANC-08-13) was greater than 1.02 µM. The IC50 (MKN-1) was 0.0784 µM, the IC50 (VM-CUB-1) was 0.0347 µM and the IC50 (BPH-1) was 0.0203 µM. For the same compound, the IC50 (JIYOYE) was 0.0394 µM, the IC50 (HTC-C3) was 0.996 µM and the IC50 (SW48) was 0.463 µM. It also gave an IC50 (647-V) of less than 0.004 µM, an IC50 (NCI-H716) greater than 1.02 µM and an IC50 (KMS-12-PE) greater than 1.02 µM. It also gave an IC50 (KYSE-410) of 0.0559 µM, an IC50 (G-401) of 0.0552 µM and an IC50 (UO-31) of less than 0.004 µM. The IC50 (SBC-5) was less than 0.004 µM, the IC50 (MEL-JUSO) was less than 0.004 µM and the IC50 (T84) was 0.016 µM. The IC50 (UACC-62) was 0.813 µM, the IC50 (MC-IXC) was 0.00226 µM and the IC50 (ASPC1) was greater than 1.02 µM. For the same compound, the IC50 (HT1197) was greater than 1.02 µM and the IC50 (NCI-H1522) was greater than 1.02 µM.
Work on `C#Cc1cccc(Nc2ncnc3cc(OCCOC)c(OCCOC)cc23)c1` [ERLOTINIB] yielded an IC50 (D-336MG) greater than 2 µM, an IC50 (CA46) greater than 2 µM and an IC50 (RL) greater than 2 µM. It also gave an IC50 (D-542MG) greater than 2 µM, an IC50 (NCI-H322M) greater than 2 µM and an IC50 (JIYOYE) greater than 2 µM. For the same compound, the IC50 (NCI-H716) was greater than 2 µM and the IC50 (KMS-12-PE) was greater than 2 µM.
In the case of `CCN(CC)CCNC(=O)c1c(C)[nH]c(/C=C2\C(=O)Nc3ccc(F)cc32)c1C` [SUNITINIB], the IC50 (D-336MG) is reported as greater than 8 µM, the IC50 (CA46) is reported as 7.58 µM and the IC50 (RL) is reported as greater than 8 µM. For the same compound, the IC50 (NCI-H322M) was greater than 8 µM, the IC50 (JIYOYE) was greater than 8 µM and the IC50 (NCI-H716) was greater than 8 µM. For the same compound, the IC50 (KMS-12-PE) was greater than 8 µM and the IC50 (NCI-H1522) was greater than 8 µM.
Work on `Oc1ccc2ccccc2c1SSc1c(O)ccc2ccccc12` yielded an IC50 (NCI-H441) greater than 32 µM, an IC50 (NCI-H2009) of 5.04 µM and an IC50 (CA46) of 3.66 µM. For the same compound, the IC50 (RL) was greater than 32 µM, the IC50 (UMUC3) was greater than 32 µM and the IC50 (D-542MG) was 27.2 µM. It also gave an IC50 (A2780) of 28.4 µM, an IC50 (HCC1937) greater than 32 µM and an IC50 (KU-19-19) greater than 32 µM. The IC50 (NCI-H322M) was greater than 32 µM, the IC50 (MeWo) was greater than 32 µM and the IC50 (SK-MEL-30) was greater than 32 µM. The IC50 (CaR-1) was greater than 32 µM, the IC50 (23132-87) was greater than 32 µM and the IC50 (GMS-10) was greater than 32 µM. The IC50 (OAW-28) was greater than 32 µM, the IC50 (RPMI-2650) was greater than 32 µM and the IC50 (NCI-H1792) was greater than 32 µM. The IC50 (SK-LU-1) was 18.9 µM, the IC50 (SW756) was greater than 32 µM and the IC50 (T98G) was greater than 32 µM. For the same compound, the IC50 (CHP-212) was 9.1 µM, the IC50 (CAL-120) was greater than 32 µM and the IC50 (PANC-08-13) was greater than 32 µM. For the same compound, the IC50 (MKN-1) was greater than 32 µM, the IC50 (VM-CUB-1) was greater than 32 µM and the IC50 (BPH-1) was greater than 32 µM. The IC50 (JIYOYE) was 7.26 µM, the IC50 (HTC-C3) was greater than 32 µM and the IC50 (SW48) was 21.9 µM. It also gave an IC50 (647-V) greater than 32 µM, an IC50 (NCI-H716) greater than 32 µM and an IC50 (KMS-12-PE) greater than 32 µM. The IC50 (KYSE-410) was greater than 32 µM, the IC50 (G-401) was 7.53 µM and the IC50 (UO-31) was greater than 32 µM. The IC50 (SBC-5) was greater than 32 µM, the IC50 (MEL-JUSO) was greater than 32 µM and the IC50 (T84) was 12.2 µM. The IC50 (UACC-62) was greater than 32 µM, the IC50 (MC-IXC) was greater than 32 µM and the IC50 (ASPC1) was greater than 32 µM. For the same compound, the IC50 (HT1197) was 10.3 µM and the IC50 (NCI-H1522) was greater than 32 µM.
`O=C(O)c1ccc(-c2c[nH]c3ncc(-c4ccccc4)cc23)cc1C1CCCC1` [GSK-650394] was tested, and the IC50 (NCI-H441) was greater than 16 µM, the IC50 (NCI-H2009) was 3.76 µM and the IC50 (CA46) was greater than 16 µM. The IC50 (RL) was greater than 16 µM, the IC50 (UMUC3) was 9.58 µM and the IC50 (D-542MG) was greater than 16 µM. The IC50 (A2780) was greater than 16 µM, the IC50 (HCC1937) was greater than 16 µM and the IC50 (KU-19-19) was greater than 16 µM. The IC50 (NCI-H322M) was greater than 16 µM, the IC50 (MeWo) was greater than 16 µM and the IC50 (SK-MEL-30) was 7.97 µM. It also gave an IC50 (CaR-1) greater than 16 µM, an IC50 (23132-87) of 10.3 µM and an IC50 (GMS-10) greater than 16 µM. For the same compound, the IC50 (OAW-28) was greater than 16 µM, the IC50 (RPMI-2650) was greater than 16 µM and the IC50 (NCI-H1792) was greater than 16 µM. It also gave an IC50 (SK-LU-1) of 3.97 µM, an IC50 (SW756) greater than 16 µM and an IC50 (T98G) greater than 16 µM. For the same compound, the IC50 (CHP-212) was greater than 16 µM, the IC50 (CAL-120) was greater than 16 µM and the IC50 (PANC-08-13) was greater than 16 µM. The IC50 (MKN-1) was 9.19 µM, the IC50 (VM-CUB-1) was greater than 16 µM and the IC50 (BPH-1) was greater than 16 µM. For the same compound, the IC50 (JIYOYE) was greater than 16 µM, the IC50 (HTC-C3) was 10.7 µM and the IC50 (SW48) was greater than 16 µM. For the same compound, the IC50 (647-V) was greater than 16 µM, the IC50 (NCI-H716) was greater than 16 µM and the IC50 (KMS-12-PE) was greater than 16 µM. It also gave an IC50 (KYSE-410) greater than 16 µM, an IC50 (G-401) greater than 16 µM and an IC50 (UO-31) greater than 16 µM. The IC50 (SBC-5) was 14.9 µM, the IC50 (MEL-JUSO) was 4.69 µM and the IC50 (T84) was 2.6 µM. The IC50 (UACC-62) was greater than 16 µM, the IC50 (MC-IXC) was greater than 16 µM and the IC50 (ASPC1) was greater than 16 µM. For the same compound, the IC50 (HT1197) was greater than 16 µM and the IC50 (NCI-H1522) was greater than 16 µM.
